Results from patent US11000033B2, “Ketone or oxime compound, and herbicide” (NISSAN CHEMICAL CORPORATION, priority 2014, dated 2021).

What was measured:
Assay type in all cases: in vivo
[1] = test system: Echinochloa oryzacola Vasing.; test: Test Example 1: herbicidal activity, application before weed generation in submerged conditions (symbol A); conditions: application herbicide amount 320 g/ha
Outline: (§1)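 Application before weed emergence: an aqueous dilution of the emulsion formulation was poured onto the surface of 4 cm-deep floodwater on the day of sowing. Effect was judged after 3 weeks (greenhouse, 25–30 °C).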

Scirpus juncoides [2] = test: Test Example 1: herbicidal activity, application before weed generation in submerged conditions (symbol B); conditions: application herbicide amount 320 g/ha
Outline: as §1

Monochoria vaginalis [3] = test: Test Example 1: herbicidal activity, application before weed generation in submerged conditions (symbol C); conditions: application herbicide amount 320 g/ha
Outline: as §1

transplanted rice plant = test: Test Example 1: effect on crop, application before weed generation in submerged conditions (symbol a); conditions: application herbicide amount 320 g/ha
Outline: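 Rice at 2.5 leaf stage transplanted into submerged soil (4 cm depth) sown with three weed species; herbicide applied before weed emergence.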

[4] = test system: Echinochloa oryzacola Vasing.; test: Test Example 2: herbicidal activity, application during weed generation in submerged conditions (symbol A); conditions: Table 23; application herbicide amount 320 g/ha; grade 0-5 by criteria of Test Example 1
Method: (§2) Herbicidal Activity Test by Application During Weed Generation in Submerged Conditions
(§3) After alluvial soil was placed into 1/10000 are of Wagner pot, water was poured and mixed to form a submerged condition having a water depth of 4 cm. Seeds of Echinochloa oryzacola Vasing., Scirpus juncoides, and Monochoria vaginalis were sowed in a mixed manner in the above pot and the pot was placed in the greenhouse of 25° C. to 30° C. to grow the plants. When Echinochloa oryzacola Vasing., Scirpus juncoides, and Monochoria vaginalis were grown to one leaf stage to two leaf stage, the emulsion agent of the compound of the present invention prepared in accordance with Formulation Example 2 was diluted with water so as to be a predetermined herbicide amount and the diluted emulsion agent was applied to the surface of the water. 3 weeks later from the herbicide application, the effect to each plant was investigated in accordance with the criteria of Test Example 1.

Scirpus juncoides [5] = test: Test Example 2: herbicidal activity, application during weed generation in submerged conditions (symbol B); conditions: Table 23; application herbicide amount 320 g/ha; grade 0-5 by criteria of Test Example 1
Method: as §2, §3

Monochoria vaginalis [6] = test: Test Example 2: herbicidal activity, application during weed generation in submerged conditions (symbol C); conditions: Table 23; application herbicide amount 320 g/ha; grade 0-5 by criteria of Test Example 1
Method: as §2, §3

Digitaria ciliaris = test: Test Example 5: herbicidal effect by foliage application, plastic box (symbol F); conditions: 320 g/ha, 3 weeks after application
Outline: (§4)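 Emulsion formulation, diluted with water to the intended rate, was applied uniformly to leaves by small sprayer. Recipients were 14-day greenhouse-grown seedlings (25° C. to 30° C.). Assessment followed at 3 weeks.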

Setaria viridis = test: Test Example 5: herbicidal effect by foliage application, plastic box (symbol G); conditions: 320 g/ha, 3 weeks after application
Outline: as §4

[7] = test system: Echinochloa crus-galli var. crus-galli; test: Test Example 5: herbicidal effect by foliage application, plastic box (symbol H); conditions: 320 g/ha, 3 weeks after application
Outline: as §4

Avena fatua = test: Test Example 5: herbicidal effect by foliage application, plastic box (symbol I); conditions: 320 g/ha, 3 weeks after application
Outline: as §4

Alopecurus myosuroides = test: Test Example 5: herbicidal effect by foliage application, plastic box (symbol J); conditions: 320 g/ha, 3 weeks after application
Outline: as §4

Lolium multiflorum Lam. = test: Test Example 5: herbicidal effect by foliage application, plastic box (symbol K); conditions: 320 g/ha, 3 weeks after application
Outline: as §4

Apera spica-venti = test: Test Example 5: herbicidal effect by foliage application, plastic box (symbol L); conditions: 320 g/ha, 3 weeks after application
Outline: as §4

Abutilon theophrasti = test: Test Example 5: herbicidal effect by foliage application, plastic box (symbol M); conditions: 320 g/ha, 3 weeks after application
Outline: as §4

Amaranthus retroflexus = test: Test Example 5: herbicidal effect by foliage application, plastic box (symbol N); conditions: 320 g/ha, 3 weeks after application
Outline: as §4

Chenopodium album = test: Test Example 5: herbicidal effect by foliage application, plastic box (symbol O); conditions: 320 g/ha, 3 weeks after application
Outline: as §4

Stellaria media = test: Test Example 5: herbicidal effect by foliage application, plastic box (symbol P); conditions: 320 g/ha, 3 weeks after application
Outline: as §4

Galium spurium = test: Test Example 5: herbicidal effect by foliage application, plastic box (symbol Q); conditions: 320 g/ha, 3 weeks after application
Outline: as §4

Veronica persica = test: Test Example 5: herbicidal effect by foliage application, plastic box (symbol R); conditions: 320 g/ha, 3 weeks after application
Outline: as §4

corn = test: Test Example 5: effect on crop by foliage application, plastic box (symbol c); conditions: 320 g/ha, 3 weeks after application
Outline: (§5)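 Seeds were sown in spots in sterilized diluvial soil held in a plastic box 21 cm × 13 cm × 7 cm deep, covered with about 1.5 cm of soil, and grown in a greenhouse at 25° C. to 30° C.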

soybean = test: Test Example 5: effect on crop by foliage application, plastic box (symbol d); conditions: 320 g/ha, 3 weeks after application
Outline: as §5

rice plant = test: Test Example 5: effect on crop by foliage application, plastic box (symbol b); conditions: 320 g/ha, 3 weeks after application
Outline: as §5

wheat = test: Test Example 5: effect on crop by foliage application, plastic box (symbol e); conditions: 320 g/ha, 3 weeks after application
Outline: as §5

beet = test: Test Example 5: effect on crop by foliage application, plastic box (symbol f); conditions: 320 g/ha, 3 weeks after application
Outline: as §5

rapeseed = test: Test Example 5: effect on crop by foliage application, plastic box (symbol g); conditions: 320 g/ha, 3 weeks after application
Outline: as §5

[8] = test system: Echinochloa crus-galli var. crus-galli; test: Test Example 3: herbicidal effect by foliage application, Wagner pot (symbol H); conditions: application herbicide amount 320 g/ha
Outline: (§6)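 Weeds and rice were sown in alluvial soil under 0.1–0.5 cm of standing water and grown for 14 days in a 25–30 °C greenhouse. An emulsion of the compound, diluted in water to a set dose, was sprayed evenly onto the foliage. Effect was scored against fixed criteria 3 weeks after treatment.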

Leptochloa chinensis = test: Test Example 3: herbicidal effect by foliage application, Wagner pot (symbol D); conditions: application herbicide amount 320 g/ha
Outline: as §6

[9] = test system: directly sowed rice plant; test: Test Example 3: effect on crop by foliage application, Wagner pot (symbol b); conditions: application herbicide amount 320 g/ha
Outline: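 Steps: fill a 1/10000-are Wagner pot with alluvial soil; add water and mix to submerge at 0.1–0.5 cm depth; sow rice plus Echinochloa crus-galli var. crus-galli, Leptochloa chinensis and Cyperus difformis; grow in a 25–30 °C greenhouse.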

CC(CC1CC(O)=C(c2c(C)cc(C)cc2C)C1=O)=NOCc1c(F)cccc1Cl (stereo not shown) [1-115]
Herbicidal effect grade, A: Echinochloa oryzacola Vasing. [1]: 5 (Herbicidal ratio of 90% or more (almost completely withered))
Herbicidal effect grade, B: Scirpus juncoides (Scirpus juncoides [2]): 3 (Herbicidal ratio of 40% or higher and lower than 70%)
Herbicidal effect grade, C: Monochoria vaginalis (Monochoria vaginalis [3]): 4 (Herbicidal ratio of 70% or higher and lower than 90%)
Effect grade on crop, a: transplanted rice plant (transplanted rice plant): 1 (Herbicidal ratio of 5% or higher and lower than 20%)
Herbicidal effect grade, A: Echinochloa oryzacola Vasing. [4]: 3 (Herbicidal ratio of 40% or higher and lower than 70%)
Herbicidal effect grade, B: Scirpus juncoides (Scirpus juncoides [5]): 2 (Herbicidal ratio of 20% or higher and lower than 40%)
Herbicidal effect grade, C: Monochoria vaginalis (Monochoria vaginalis [6]): 0 (Herbicidal ratio of 5% or lower (almost no effect))
F: Digitaria ciliaris, herbicidal effect (criteria 0-5) (Digitaria ciliaris): 2 (Herbicidal ratio of 20% or higher and lower than 40%)
G: Setaria viridis, herbicidal effect (criteria 0-5) (Setaria viridis): 1 (Herbicidal ratio of 5% or higher and lower than 20%)
H: Echinochloa crus-galli var. crus-galli, herbicidal effect (criteria 0-5) [7]: 1 (Herbicidal ratio of 5% or higher and lower than 20%)
I: Avena fatua, herbicidal effect (criteria 0-5) (Avena fatua): 2 (Herbicidal ratio of 20% or higher and lower than 40%)
J: Alopecurus myosuroides, herbicidal effect (criteria 0-5) (Alopecurus myosuroides): 3 (Herbicidal ratio of 40% or higher and lower than 70%)
K: Lolium multiflorum Lam., herbicidal effect (criteria 0-5) (Lolium multiflorum Lam.): 3 (Herbicidal ratio of 40% or higher and lower than 70%)
L: Apera spica-venti, herbicidal effect (criteria 0-5) (Apera spica-venti): 4 (Herbicidal ratio of 70% or higher and lower than 90%)
M: Abutilon theophrasti, herbicidal effect (criteria 0-5) (Abutilon theophrasti): 0 (Herbicidal ratio of 5% or lower (almost no effect))
N: Amaranthus retroflexus, herbicidal effect (criteria 0-5) (Amaranthus retroflexus): 0 (Herbicidal ratio of 5% or lower (almost no effect))
O: Chenopodium album, herbicidal effect (criteria 0-5) (Chenopodium album): 0 (Herbicidal ratio of 5% or lower (almost no effect))
P: Stellaria media, herbicidal effect (criteria 0-5) (Stellaria media): 1 (Herbicidal ratio of 5% or higher and lower than 20%)
Q: Galium spurium, herbicidal effect (criteria 0-5) (Galium spurium): 0 (Herbicidal ratio of 5% or lower (almost no effect))
R: Veronica persica, herbicidal effect (criteria 0-5) (Veronica persica): 1 (Herbicidal ratio of 5% or higher and lower than 20%)
c: corn, effect on crop (criteria 0-5) (corn): 0 (Herbicidal ratio of 5% or lower (almost no effect))
d: soybean, effect on crop (criteria 0-5) (soybean): 0 (Herbicidal ratio of 5% or lower (almost no effect))
b: directly sowed rice plant, effect on crop (criteria 0-5) (rice plant): 1 (Herbicidal ratio of 5% or higher and lower than 20%)
e: wheat, effect on crop (criteria 0-5) (wheat): 0 (Herbicidal ratio of 5% or lower (almost no effect))
f: beet, effect on crop (criteria 0-5) (beet): 0 (Herbicidal ratio of 5% or lower (almost no effect))
g: rapeseed, effect on crop (criteria 0-5) (rapeseed): 5 (Herbicidal ratio of 90% or more (almost completely withered))

CON=C(C)CC1CC(OCC(Cl)=CCl)=C(c2c(C)cc(C)cc2C)C1=O (stereo not shown) [1-166]
Herbicidal effect grade, A: Echinochloa oryzacola Vasing. [1]: 5 (Herbicidal ratio of 90% or more (almost completely withered))
Herbicidal effect grade, B: Scirpus juncoides (Scirpus juncoides [2]): 0 (Herbicidal ratio of 5% or lower (almost no effect))
Herbicidal effect grade, C: Monochoria vaginalis (Monochoria vaginalis [3]): 0 (Herbicidal ratio of 5% or lower (almost no effect))
Effect grade on crop, a: transplanted rice plant (transplanted rice plant): 0 (Herbicidal ratio of 5% or lower (almost no effect))
Herbicidal effect grade, A: Echinochloa oryzacola Vasing. [4]: 3 (Herbicidal ratio of 40% or higher and lower than 70%)
Herbicidal effect grade, B: Scirpus juncoides (Scirpus juncoides [5]): 0 (Herbicidal ratio of 5% or lower (almost no effect))
Herbicidal effect grade, C: Monochoria vaginalis (Monochoria vaginalis [6]): 0 (Herbicidal ratio of 5% or lower (almost no effect))
herbicidal effect on H (Echinochloa crus-galli var. crus-galli), grade 0-5 [8]: 4 (Herbicidal ratio of 70% or higher and lower than 90%)
herbicidal effect on D (Leptochloa chinensis), grade 0-5 (Leptochloa chinensis): 4 (Herbicidal ratio of 70% or higher and lower than 90%)
effect on crop b (directly sowed rice plant), grade 0-5 [9]: 3 (Herbicidal ratio of 40% or higher and lower than 70%)
F: Digitaria ciliaris, herbicidal effect grade (Digitaria ciliaris): 1 (Herbicidal ratio of 5% or higher and lower than 20%)
G: Setaria viridis, herbicidal effect grade (Setaria viridis): 1 (Herbicidal ratio of 5% or higher and lower than 20%)
H: Echinochloa crus-galli var. crus-galli, herbicidal effect grade [7]: 4 (Herbicidal ratio of 70% or higher and lower than 90%)
I: Avena fatua, herbicidal effect grade (Avena fatua): 5 (Herbicidal ratio of 90% or more (almost completely withered))
J: Alopecurus myosuroides, herbicidal effect grade (Alopecurus myosuroides): 4 (Herbicidal ratio of 70% or higher and lower than 90%)
K: Lolium multiflorum Lam., herbicidal effect grade (Lolium multiflorum Lam.): 5 (Herbicidal ratio of 90% or more (almost completely withered))
L: Apera spica-venti, herbicidal effect grade (Apera spica-venti): 5 (Herbicidal ratio of 90% or more (almost completely withered))
M: Abutilon theophrasti, herbicidal effect grade (Abutilon theophrasti): 3 (Herbicidal ratio of 40% or higher and lower than 70%)
N: Amaranthus retroflexus, herbicidal effect grade (Amaranthus retroflexus): 0 (Herbicidal ratio of 5% or lower (almost no effect))
O: Chenopodium album, herbicidal effect grade (Chenopodium album): 0 (Herbicidal ratio of 5% or lower (almost no effect))
P: Stellaria media, herbicidal effect grade (Stellaria media): 0 (Herbicidal ratio of 5% or lower (almost no effect))
Q: Galium spurium, herbicidal effect grade (Galium spurium): 0 (Herbicidal ratio of 5% or lower (almost no effect))
R: Veronica persica, herbicidal effect grade (Veronica persica): 0 (Herbicidal ratio of 5% or lower (almost no effect))
c: corn, effect on crop grade (corn): 1 (Herbicidal ratio of 5% or higher and lower than 20%)
d: soybean, effect on crop grade (soybean): 1 (Herbicidal ratio of 5% or higher and lower than 20%)
b: directly sowed rice plant, effect on crop grade (rice plant): 3 (Herbicidal ratio of 40% or higher and lower than 70%)
e: wheat, effect on crop grade (wheat): 1 (Herbicidal ratio of 5% or higher and lower than 20%)
f: beet, effect on crop grade (beet): 0 (Herbicidal ratio of 5% or lower (almost no effect))
g: rapeseed, effect on crop grade (rapeseed): 4 (Herbicidal ratio of 70% or higher and lower than 90%)
